Reference: PubChem BioAssay AID2305 (GlaxoSmithKline (GSK), 2010)
Where “and” joins values, the source holds several entries; their conditions need not be identical. Equal values may be shown once.

What follows are compounds tested on P. falciparum 3D7 growth, pLDH absorbance (assay: blood-stage malaria parasite growth potency – strain 3D7, dose response (AID 2305)).

Row | Structure (SMILES) | IC50
1 | O=C1OC2(CN1CC1CCN(Cc3ccc(-n4ccnc4)cc3)C1)c1ccccc1-c1ccccc12 (centres undefined) | 0.98 µM
2 | COc1ccc2ncc(F)c(CCN3CCC(NCc4cc(C)c5c(c4)OCCO5)CC3)c2n1 | 0.49 µM
3 | CC(Cc1ccc(OCCN2CCN(c3cccc(Cl)c3)CC2)cc1)NCC(O)c1cccc(C(F)(F)F)c1 (centres undefined) | 0.6 µM
4 | O=C(Nc1ccc([N+](=O)[O-])cc1)Nc1cc(C(F)(F)F)ccc1F | 1.07 µM
5 | COc1ccc(N2CCN(c3nc(Nc4ccc(NC(C)=O)cc4)nc(N4CCCC4)n3)CC2)cc1 | 0.98 µM
6 | CCOC(=O)C(Oc1ccc2ccccc2c1)C(=O)OCC | 0.76 µM
7 | c1ccc(Oc2ccc(Nc3ccnc4cc(-c5csc(CN6CCCCC6)n5)ccc34)cc2)nc1 | 0.58 µM
8 | COC(=O)CCCCCOc1cc(Cc2cnc(N)nc2N)cc(OC)c1OC | 0.18 µM
9 | COc1cc(NC(=O)CCCCCCCCN2CCN(C)CC2)c2ncccc2c1 | 0.89 µM
10 | CCCCCCn1c(Sc2ccc(C#N)c([N+](=O)[O-])c2)nnc1-c1ccc(Cl)cc1 | 0.83 µM
11 | O=C(Nc1ccc(Cl)c(C(F)(F)F)c1)NC1CCN(CCCCCNC(=O)[C@@H]2C[C@H]2c2ccc(Cl)c(Cl)c2)CC1 | 0.68 µM
12 | COc1ccccc1CNC(=O)c1nn(-c2ccc(Cl)cc2)c(=O)c2ccccc12 | 0.29 µM
13 | CCCCCCN1CCN(Cc2cccc(NC(=O)c3cc4ccccc4s3)c2)CC1 | 0.91 µM
14 | Cc1cccc(C(O)CNc2ccnc(Nc3cccc(-c4csc(C)n4)c3)n2)c1 (centres undefined) | 0.68 µM
15 | Cc1cc(Nc2cc(Cl)cc(Cl)c2)nc(N)n1 | 1.14 µM
16 | c1ccc2c(CNCCCCCCNCc3c(OCC4CC4)ccc4ccccc34)c(OCC3CC3)ccc2c1 | 0.93 µM
17 | O=S(=O)(NCCN1CCCC1)c1ccc(-c2cccc(CNCc3ccc(F)cc3)c2)cc1F | 0.79 µM
18 | C=CCNc1cc(-c2ccccn2)nc(-c2ccccn2)n1 | 0.47 µM
19 | CCCn1c(Sc2ccc(C#N)c([N+](=O)[O-])c2)nnc1-c1ccc(N(C)C)cc1 | 0.13 µM
20 | CN(C)c1nc2cc(-n3cnc4cc(-c5ccc(Cl)cc5)sc4c3=O)ccc2n1CCCN1CCCCC1 | 0.84 µM
21 | c1ccc(COc2ccc(Nc3ncnc4cnc(-c5ccc(CN6CCCCC6)o5)cc34)cc2)cc1 | 0.97 µM
22 | Cc1cc(NCc2ccccc2)nc(NCc2ccccc2)n1 | 0.97 µM
23 | Cc1cc(NC(=O)[C@H](CC2CCCCC2)Nc2ccc(C#N)c3ccccc23)ccc1F | 0.68 µM
24 | Cc1ccc(NC(=O)Nc2ccc(S(=O)(=O)c3ccc(NC(=O)Nc4ccc(C)c(Cl)c4)cc3)cc2)cc1Cl | 0.75 µM
25 | COc1cc(-c2cnc(N)c(-c3nc4ccccc4[nH]3)c2)cc(OC)c1OC | 0.19 µM

Row | Structure (SMILES) | IC50
26 | Cc1ccc(N2CCc3c(-c4cc5cccnc5nc4C)cc(C)nc32)c(Cl)c1 | 0.58 µM
27 | O=C(Nc1cccc(OC2CCN(Cc3ccc(F)cc3)CC2)c1)c1ccc(C(F)(F)F)cc1 | 0.95 µM
28 | CC(Cc1ccc(NC(=O)c2ccc(CC(C)NCc3ccc(Cl)cc3)cc2)cc1)NCCc1cccc(Cl)c1 (centres undefined) | 0.45 µM
29 | Cc1ccc(CN(Cc2ccc(C(=O)N(C)C)cc2)Cc2ccc3c(c2)OCCO3)cc1C | 0.8 µM
30 | COc1cc2nccc(Nc3ccc(OCc4ccccc4)cc3)c2cc1OC | 0.2 µM
31 | CCc1ccc(C2CCN(CCCCNC(=O)c3ccc(NC(=O)c4ccc(Cl)cc4)cc3)CC2)cc1 | 0.65 µM
32 | COc1ccc(-c2cccc(NC(=O)c3ccc(C#N)cc3)c2)cc1CN1CCCC1 | 0.7 µM
33 | CN(C)Cc1cc2c(O)c(Cc3ccccc3)ccc2o1 | 1.09 µM
34 | CC1(C)N=C(N)N=C(N)N1c1cccc(Cl)c1 | 0.04 µM
35 | COc1ccc(NC(=O)C=Cc2ccc(Oc3ccccc3Cl)c([N+](=O)[O-])c2)cc1OCCN(C(C)C)C(C)C | 0.88 µM
36 | CCCc1cc(Cc2cnc(N)nc2N)cc(CCC)c1OC | 0.89 µM
37 | CC(C)CCNc1nc2ccccc2nc1Nc1cccc(C(F)(F)F)c1 | 0.91 µM
38 | CCC(C)OC(=O)C1=C(C)NC2=C(C(=O)CC(c3ccc(OC)c(OC)c3)C2)C1c1cccc(O)c1 (centres undefined) | 0.19 µM
39 | Cc1cccc2[nH]c(-c3ccc(-c4ccc(NC(=O)C(C)CN5CCN(C)CC5)cc4)s3)nc12 (centres undefined) | 0.73 µM
40 | CC(C)(C)NCCN(Cc1ccc(-c2ccc(C(F)(F)F)cc2)cc1)C(=O)Cn1c(CCc2cccc(F)c2F)nc(=O)c2c1CCC2 | 0.95 µM
41 | CN(C)c1ccc(-c2ccc(C(=O)NC3CCN(Cc4ccccc4F)CC3)s2)cc1 | 1.4 µM
42 | O=C1C[C@@H]([S@@](=O)Cc2nccs2)N1CCOCCCCCCc1ccc(Cl)cc1 | 1.02 µM
43 | O=C(Nc1cccc(Cl)c1Cl)NC1CCN(Cc2cccc(O)c2)CC1 | 0.8 µM
44 | CC(NCC(O)Cn1c2ccccc2c2ccccc21)c1ccccc1 (centres undefined) | 0.93 µM
45 | COc1ccc(Br)cc1/C=C/C(=O)Nc1cccc(C2CCN(C)CC2)c1 | 0.52 µM
46 | Fc1ccc2nc(Nc3nc(-c4ccccn4)cs3)sc2c1 | 0.56 µM
47 | CCOC(=O)c1cnc2c(C(F)(F)F)cccc2c1Nc1ccc(O)cc1 | 0.63 µM
48 | COc1ccc(Nc2nccc(NCC(O)c3ccc(C(F)(F)F)cc3)n2)cc1 (centres undefined) | 0.55 µM
49 | COc1ccc(NC(=O)/C=C/c2ccccc2Cl)cc1OCCN1CCN(c2ccncc2)CC1 | 0.73 µM
50 | O=C(NC1CCC(N2CCC3(CC2)C(=O)NCN3c2ccccc2)CC1)c1cc2ccccc2[nH]1 (centres undefined) | 0.68 µM

Row | Structure (SMILES) | IC50
51 | O=C(/C=C/c1ccc(Cl)c(Cl)c1)NCCCCCN1CCCN(C(=O)Nc2cccc(Cl)c2)CC1 | 0.67 µM
52 | N#Cc1ccc(N2CCN(Cc3cccc(-c4cccc(-c5nc6ccc(F)cc6[nH]5)c4)c3)CC2)nc1 | 0.96 µM
53 | COc1ccc2nccc(N(C)CC3(O)CCN(CC(O)c4ccc5c(c4)NC(=O)CS5)CC3)c2n1 (centres undefined) | 0.59 µM
54 | O=C(NC1CCN(c2ccnc3cc(Cl)ccc23)C1)c1ccc(F)cc1 (centres undefined) | 0.19 µM
55 | O=C(Nc1cccc(-c2nn3ccccc3c2-c2ccnc(Nc3ccc(C(=O)N4CCOCC4)cc3)n2)c1)c1c(F)cccc1F | 0.38 µM
56 | CN1Cc2ccc(NS(=O)(=O)c3ccc(-c4ccoc4)cc3)cc2C1 | 0.16 µM
57 | c1ccc(COc2ccc(COc3ccc(Cn4ccnc4)cc3)cc2)cc1 | 0.95 µM
58 | CCOc1c(N2CCN(CCCCNC(=O)c3ccc(NC(=O)c4ccc(Cl)cc4)cc3)CC2)ccc2ccccc12 | 0.68 µM
59 | Nc1nc(N)c2c(ccc3c2ccn3CCCCO)n1 | 0.12 µM
60 | CN1CCN(Cc2ccc(OCc3cccc(COc4ccc(CN5CCN(C)CC5)cc4I)c3)c(I)c2)CC1 | 1.01 µM
61 | CCCNCc1ccc(-c2ccc(CN(Cc3ccc4c(c3)OCO4)C(=O)Cc3cccnc3)cc2)nc1 | 0.86 µM
62 | COc1ccc2nccc([C@@H](O)CN3CCC(NS(=O)(=O)c4cc5c(cc4Cl)SCC(=O)N5)CC3)c2c1 | 0.98 µM
63 | O=c1cc(NCCCNCc2cc(Cl)c(Cl)cc2Cl)[nH]c2ccccc12 | 0.97 µM
64 | CCN(CCCN1CCCCC1)c1cc(C)nc(Nc2ccc(C)cc2Cl)n1 | 0.34 µM
65 | CCc1ccc(-c2nc3cc(NC(=O)c4cc([N+](=O)[O-])cc([N+](=O)[O-])c4)ccc3o2)cc1 | 0.93 µM
66 | CC(C)C[C@H](Nc1ccnc(NCC2CCCCC2)n1)C(=O)NCCc1ccccc1 | 0.75 µM
67 | CC(=O)Nc1ccc(CN2Cc3ccc(NC(=O)Nc4ccc(Oc5ccccc5)cc4)cc3C2)s1 | 0.92 µM
68 | NC(=O)C1CCN(Cc2ccc(-c3ccc(-c4nc5ccc(C(F)(F)F)cc5[nH]4)s3)cc2)CC1 | 0.54 µM
69 | CC(C)Cn1c2ccccc2c2nc3nc(N)nc(N)c3nc21 | 0.72 µM
70 | O=C(/C=C/c1cccc2ccccc12)NC1CCC(CN2CCC(c3c[nH]c4ccccc34)CC2)CC1 (centres undefined) | 0.74 µM and 0.67 µM
71 | CC1(CCCCN2CC=C(c3c[nH]c4ccccc34)CC2)C(=O)Nc2ccccc21 (centres undefined) | 0.14 µM
72 | Oc1cc2ccccc2cc1CNC1CCCCC1 | 0.59 µM
73 | COc1ccc(CCNCCCCCNCCCc2ccc(Cl)cc2)cc1OC | 0.81 µM
74 | CN(C)c1c(CNCCCCCCNCc2ccc3ccccc3c2N(C)C)ccc2ccccc12 | 0.46 µM
75 | CCCCCOc1ccc(C(O)C(CN2CCCCC2)c2ccccc2)cc1 (centres undefined) | 0.88 µM

Row | Structure (SMILES) | IC50
76 | COc1cc(Cc2cnc(N)nc2N)cc(OC)c1OCCCCC(=O)O | 1.14 µM
77 | Cc1cc(NCCC(=O)Nc2ccccc2)nc(NCCc2cccnc2)n1 | 1.24 µM
78 | COc1ccc2nccc([C@@H](O)CN3CCC(NC(=O)C(c4cc5ccccc5s4)N4CC(C)OC(C)C4)CC3)c2c1 (some centres undefined) | 0.98 µM
79 | Cc1cccc(-c2nn(-c3ccccc3)c3[nH]c(=O)c(CN4CCSCC4)cc23)c1 | 1.01 µM
80 | Cc1cc(=O)c2cc(-c3ccc(OC(F)(F)F)cc3)ccc2[nH]1 | 0.48 µM
81 | Cc1ccc(Nc2nc3cc(N(C)c4ccnc(Nc5cccc(CCS(C)(=O)=O)c5)n4)ccc3n2C)cc1 | 0.34 µM
82 | CSc1nccc(-c2ccc(S(=O)(=O)NC3CCC(CN4CCC(c5c[nH]c6ccccc56)CC4)CC3)s2)n1 (centres undefined) | 0.25 µM and 0.81 µM
83 | CCCn1cc2c(ccc3nc(N)nc(N)c32)n1 | 0.08 µM
84 | O=C1CCCN1CCCNCc1cccc(-c2ccc(-c3nc4ccccc4[nH]3)s2)c1 | 0.86 µM
85 | Fc1cccc(Cl)c1-c1nc(NCCC(c2ccccc2)c2ccccc2)no1 | 0.55 µM
86 | O=C(/C=C/c1ccc(Cl)c(Cl)c1)NCCCCCN1CCCN(C(=O)Nc2ccc(OC(F)F)cc2)CC1 | 0.83 µM
87 | CC(C(=O)N1CCCC1)N1CCN(C(c2ccccc2)c2ccccc2)CC1 (centres undefined) | 1.1 µM
88 | O=C1Nc2cccc3c2C1(CCCCN1CCC(c2c(-c4ccccc4)[nH]c4ccccc24)CC1)CCC3 (centres undefined) | 1.2 µM
89 | CCCCCN1CCCC1CNS(=O)(=O)c1ccc(C(=O)Nc2cccc(C(F)(F)F)c2)cc1 (centres undefined) | 1.06 µM
90 | Cn1nc(-c2cccc(CNC3CCc4ccccc43)c2)c2cnc(NCCCN3CCCC3)nc21 (centres undefined) | 0.88 µM
91 | Nc1ccc(Nc2ccnc3ccc(C(F)(F)F)cc23)cc1O | 0.72 µM
92 | CCn1cc(C(=O)O)c(=O)c2cc(F)c(N3CCN(S(=O)(=O)c4ccc(N)cc4)CC3)cc21 | 0.92 µM
93 | NCc1cccc(-c2ccc(CNC3CCN(Cc4ccccc4)CC3)cc2)c1 | 1.7 µM
94 | CC(C)CNC(=O)c1ccnc(-c2ccc(CNCCCc3ccccc3)cc2)c1 | 0.73 µM
95 | O=C(Cn1c(CCc2cccc(F)c2F)nc(=O)c2ccccc21)N(CCN1CCCC1)Cc1ccc(-c2ccc(C(F)(F)F)cc2)cc1 | 0.71 µM
96 | CC(C)n1ncc2c3c(N)nc(N)nc3ccc21 | 0.33 µM
97 | COc1ccc2nccc([C@@H](O)CN3CCC(NC(=O)c4nc(Cl)c(Cl)c(N)c4Cl)CC3)c2c1 | 1.3 µM
98 | CC(C)(C)C(=O)Oc1ccc(CC2NCCc3cc(OC(=O)C(C)(C)C)c(OC(=O)C(C)(C)C)cc32)cc1OC(=O)C(C)(C)C (centres undefined) | 0.42 µM
99 | Cc1ccc(O)c(Nc2c3c(c(C#N)c4nc5ccccc5n24)CCC3)c1 | 1.25 µM
